Here are results for 1 compound from patent US7700644B2, “Isoflavonoid dimers” (Novogen Research Pty Ltd, priority 2005, dated 2010).

The test system of one assay is SKOV-3 (Ovarian). The assay is described as follows: In vitro cytotoxicity, MTT proliferation assay, SKOV-3. Type of assay: cell-based, human. As to conditions: Ovarian SKOV-3. Here is the method: (§1) The human pancreatic cancer cell line, HPAC (CRL-2119) was routinely cultured in 1:1 mixture DMEM (Sigma) plus Ham's F12 (Sigma) medium containing HEPES (15 mM), insulin (0.002 mg/ml), transferrin (0.005 mg/ml), hydrocortisone, (40 ng/ml), epidermal growth factor (10 ng/ml). The ovarian cancer cell line CP70 was obtained as a gift from Dr. Gil Mor (Yale University) and cultured in a 1:1 mixture DMEM plus Ham's F12 medium, and SKOV-3 was purchased from ATCC and cultured in McCoy's 5a medium. The breast cancer cell line MDA-MB-468 cultured in Leibovitz's L-15 medium.
(§2) All cultures were supplemented with 10% FCS(CSL, Australia), penicillin (100 U/ml), streptomycin ([…]), L-glutamine (2 mM) and sodium bicarbonate (1.2 g/L), and cultured at 37° C. in a humidified atmosphere of 5% CO2. All remaining cell lines were purchased from ATCC (Maryland, USA) except where noted.
(§3) IC50 values were determined for each cell line. Cells were seeded in 96-well plates at an appropriate cell density as determined from growth kinetics analysis. NFFs were cultured for 5 days and RK-13s for 24 hrs in the absence and presence of the test compounds. Cell proliferation was assessed after the addition of 20 μl of 3-4,5 dimethylthiazol-2,5-diphenyl tetrazolium bromide (MTT, 2.5 mg/ml in PBS, Sigma) for 3-4 hrs at 37° C. according to manufacturer's instructions. IC50 values were calculated from semi-log plots of % of control proliferation on the y-axis against log dose on the x-axis.

Assay [1] deals with ovarian cancer cell line CP70. The assay is described as follows: In vitro cytotoxicity, MTT proliferation assay, CP70. Type of assay: cell-based, human. On the procedure: as §1, §2, §3
(In general: Tetrazolium assays rely on reduction of a dye to a coloured formazan, in cell work by metabolically active cells.)

In a further assay the test system is A2780 (Ovarian). The assay is described as follows: In vitro cytotoxicity, MTT proliferation assay, A2780. It is filed as cell-based, human. Here is the method: as §1, §2, §3
The test system of the next assay is HTB-138 (Glioma). Description: In vitro cytotoxicity, MTT proliferation assay, HTB-138. It is filed as cell-based, human. The note with it: Glioma HTB-138. Here is the method:
as §1, §2, §3

Assay [2] relates to breast cancer cell line MDA-MB-468. The assay is described as follows: In vitro cytotoxicity, MTT proliferation assay, MDA-MB-468. Type of assay: cell-based, human. As to conditions: Breast MDA-MB-468. On the procedure:
as §1, §2, §3

Assay [3] has as its system Neonatal foreskin fibroblasts (NFF). The assay is described as follows: Normal cell toxicity, MTT proliferation assay, NFF. It is filed as cell-based, human. The note with it: NFF fibroblast, cultured 5 days, MTT. On the procedure: Neonatal foreskin fibroblasts (NFF) were a gift from Dr. Peter Parsons (Queensland Institute of Medical Research). RK-13 (rabbit kidney) cells were obtained from Miller Whalley (Macquarie University). Both cell types were cultured in RPMI supplemented with 10% FCS (CSL, Australia), penicillin (100 U/ml), streptomycin ([…]), L-glutamine (2 mM) and sodium bicarbonate (1.2 g/L), and cultured at 37° C. in a humidified atmosphere of 5% CO2.
as §3
Duplicate cytotoxicity assays against NFF cells were conducted with dehydroequol (DHE), 4,9-dihydroxy-14,15-dimethoxy-12a-(3′,4′-dimethoxyphenyl)-3,10-dimethyl-2,11-dioxa-(1H,12H)-6b,6c,12a,16b-tetrahydronaphtho[1,2-g]chrysene (2) from Example 6.1 and cisplatin.

The next assay deals with HCT-15 (Colorectal). Description: In vitro cytotoxicity, MTT proliferation assay, HCT-15. It is filed as cell-based, human. As to conditions: Colorectal HCT-15. On the procedure:
as §1, §2, §3

For a further assay, the system named is NCI-H460 (Lung). Description: In vitro cytotoxicity, MTT proliferation assay, NCI-H460. Type of assay: cell-based, human. On the procedure:
as §1, §2, §3

For a further assay, the system named is HT-29 (Colorectal). The assay is described as follows: In vitro cytotoxicity, MTT proliferation assay, HT-29. It is filed as cell-based, human. The note with it: Colorectal HT-29. On the procedure:
as §1, §2, §3

In a further assay the test system is LNCaP (Prostate). Description: In vitro cytotoxicity, MTT proliferation assay, LNCaP. Type of assay: cell-based, human. Here is the method: as §1, §2, §3
The next assay deals with PC3 (Prostate). Description: In vitro cytotoxicity, MTT proliferation assay, PC3. Type of assay: cell-based, human. Here is the method: as §1, §2, §3
The next assay deals with DU145 (Prostate). The assay is described as follows: In vitro cytotoxicity, MTT proliferation assay, DU145. It is filed as cell-based, human. Here is the method:
as §1, §2, §3

The subject of assay [4] is human pancreatic cancer cell line, HPAC (CRL-2119). Description: In vitro cytotoxicity, MTT proliferation assay, CRL-2119. It is filed as cell-based. The note with it: Pancreatic CRL-2119. Here is the method:
as §1, §2, §3

In the next assay the test system is MCF-7 (Breast). Description: In vitro cytotoxicity, MTT proliferation assay, MCF-7. It is filed as cell-based, human. The note with it: Breast MCF-7. On the procedure:
as §1, §2, §3

The subject of the next assay is MM96L (Melanoma). Description: In vitro cytotoxicity, MTT proliferation assay, MM96L. Type of assay: cell-based, human. On the procedure: as §1, §2, §3
The next assay has as its system MM200 (Melanoma). The assay is described as follows: In vitro cytotoxicity, MTT proliferation assay, MM200. It is filed as cell-based, human. Here is the method:
as §1, §2, §3

As usually defined, the IC50 is the midpoint of a concentration-inhibition curve. A higher IC50 goes with lower potency. Take `N.N.[Cl][Pt][Cl]` [Cisplatin, cis-diamminedichloroplatinum]: the IC50 with SKOV-3 (Ovarian) is 5.4 µM; in [1], 10.3 µM; with A2780 (Ovarian), 2.1 µM; in the assay on HTB-138 (Glioma), 42.3 µM; in [2] it was 0.58 µM; in assay [3], 9.85 ± 5 µM. Besides, the IC50 in the assay on HCT-15 (Colorectal) was 130 ± 39 µM; in the assay with NCI-H460 (Lung) it was 22.3 µM; in the assay with HT-29 (Colorectal), 22.7 ± 35 µM; with LNCaP (Prostate), > 10 µM; in the assay with PC3 (Prostate), 2.11 µM; with DU145 (Prostate), 2.07 µM. Moreover, the 50% inhibitory concentration (IC50) in assay [4] worked out at 9.36 µM; in the assay on MCF-7 (Breast) it was 3.69 µM; in the assay with MM96L (Melanoma) it was 4.6 µM; in the assay with MM200 (Melanoma) it was 8.82 µM.
